We go through eight compounds from US20140155384A1, “COMPOUNDS AND METHODS OF TREATING DIABETES” (Medivation Technologies, Inc., priority 2011, published 2014).

The inhibition is the share of the control response that was lost under treatment.

The target in test [1] is T1, rat adrenergic α1B receptor (Rattus norvegicus, UniProt P15823).
T1 construct: rat adrenergic α1B receptor obtained from Wistar Rat liver; from tissue; host or cells: Wistar rat liver
T1 sequence (P15823 1-515): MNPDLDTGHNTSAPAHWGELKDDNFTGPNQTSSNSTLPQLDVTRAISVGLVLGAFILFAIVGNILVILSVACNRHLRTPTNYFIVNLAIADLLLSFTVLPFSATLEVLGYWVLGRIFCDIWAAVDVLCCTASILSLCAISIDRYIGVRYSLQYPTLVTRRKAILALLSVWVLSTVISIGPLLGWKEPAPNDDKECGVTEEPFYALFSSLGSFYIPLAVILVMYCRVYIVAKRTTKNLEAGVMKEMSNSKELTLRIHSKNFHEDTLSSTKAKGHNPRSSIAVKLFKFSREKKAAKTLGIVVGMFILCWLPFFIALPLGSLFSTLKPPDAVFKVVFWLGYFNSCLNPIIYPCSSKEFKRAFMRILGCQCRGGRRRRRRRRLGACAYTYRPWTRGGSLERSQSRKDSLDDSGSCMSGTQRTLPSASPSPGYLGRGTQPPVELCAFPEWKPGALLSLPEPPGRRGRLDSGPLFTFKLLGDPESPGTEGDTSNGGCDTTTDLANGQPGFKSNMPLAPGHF
The test can be described thus: Radioligand binding, adrenergic α1B receptor ([3H]Prazosin). The following applies: Wistar rat liver. The gist of the method: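 Wistar rat liver α1B receptor preparation incubated with 0.25 nM [3H]prazosin and compound for 60 min at 25° C in 50 mM Tris-HCl pH 7.4, 0.5 mM EDTA; nonspecific binding defined with 10 μM phentolamine.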

Test [2] addresses T2, human recombinant adrenergic α2A receptor (Homo sapiens, UniProt P08913).
T2 construct: expressed in transfected cells; host or cells: insect Sf9 cells
T2 sequence (P08913 1-465): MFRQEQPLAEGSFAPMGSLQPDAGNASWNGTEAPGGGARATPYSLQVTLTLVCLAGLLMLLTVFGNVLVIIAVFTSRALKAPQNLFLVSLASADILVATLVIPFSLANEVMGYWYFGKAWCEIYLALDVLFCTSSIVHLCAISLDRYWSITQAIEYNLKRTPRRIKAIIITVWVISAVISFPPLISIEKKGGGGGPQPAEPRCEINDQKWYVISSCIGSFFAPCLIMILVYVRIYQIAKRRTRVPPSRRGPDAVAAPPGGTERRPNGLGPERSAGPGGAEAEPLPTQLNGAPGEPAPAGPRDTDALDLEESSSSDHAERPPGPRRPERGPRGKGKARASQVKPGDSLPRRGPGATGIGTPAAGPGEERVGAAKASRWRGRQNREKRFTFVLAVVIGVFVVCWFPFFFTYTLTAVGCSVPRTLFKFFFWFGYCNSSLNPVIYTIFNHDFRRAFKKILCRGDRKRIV
The test is described as follows: Radioligand binding, adrenergic α2A receptor ([3H]MK-912). Conditions: Sf9 cells, 1 nM [3H]MK-912; for inhibition at 0.03 µM / inhibition at 0.1 µM: read-out: Percentage inhibition of ligand binding, Adrenergic α2A. The method in brief: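 Percent inhibition of specific [3H]MK-912 (1 nM) binding measured by filtration counting, compounds tested at ≤1 μM in 1% DMSO. Receptor: human α2A from Sf9 cells; incubation 60 min, 25 °C, pH 7.4; 10 μM WB-4101 defined nonspecific binding.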

Test [3] deals with T3, human recombinant adrenergic α1D receptor (Homo sapiens, UniProt P25100).
T3 construct: expressed in transfected cells; host or cells: HEK-293
T3 sequence (P25100 1-572): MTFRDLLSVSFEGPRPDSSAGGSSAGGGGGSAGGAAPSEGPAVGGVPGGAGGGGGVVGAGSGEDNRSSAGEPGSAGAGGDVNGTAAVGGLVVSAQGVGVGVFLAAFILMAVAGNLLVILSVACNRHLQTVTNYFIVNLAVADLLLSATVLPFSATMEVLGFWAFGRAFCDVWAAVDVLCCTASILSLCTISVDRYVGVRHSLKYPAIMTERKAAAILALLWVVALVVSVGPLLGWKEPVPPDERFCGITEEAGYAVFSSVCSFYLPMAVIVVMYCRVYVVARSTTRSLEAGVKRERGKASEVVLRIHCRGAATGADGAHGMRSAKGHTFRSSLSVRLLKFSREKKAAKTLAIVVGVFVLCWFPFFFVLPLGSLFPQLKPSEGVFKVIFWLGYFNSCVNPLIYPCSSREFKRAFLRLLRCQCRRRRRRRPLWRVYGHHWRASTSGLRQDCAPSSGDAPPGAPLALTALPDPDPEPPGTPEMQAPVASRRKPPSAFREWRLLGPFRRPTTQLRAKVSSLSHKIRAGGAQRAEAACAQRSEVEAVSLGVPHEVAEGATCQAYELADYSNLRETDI
The test can be described thus: Radioligand binding, adrenergic α1D receptor ([3H]Prazosin). Conditions: 0.1 μM compound; HEK-293 cells; 0.6 nM [3H]Prazosin; read-out: Percentage inhibition of ligand binding, Adrenergic α1D. As to the method:
Compounds were incubated with 0.6 nM [3H]Prazosin for 60 min at 25° C. Non-specific binding was estimated in the presence of 10 μM phentolamine. Receptor proteins were filtered and washed, the filters were then counted to determine [3H]Prazosin specifically bound. Compounds were screened at 1 μM or lower, using 1% DMSO as vehicle. Biochemical assay results are presented as the percent inhibition of specific binding in Table 2.

[4] abbreviates: 0.1 μM compound, read-out: Percentage inhibition of ligand binding, Adrenergic α1B.

As to `Cc1ccc2c(c1)c1c(n2-c2ccccc2-c2cccn2C)CCN(C)C1` [Compound No. 100, 2,8-dimethyl-5-(2-(1-methyl-1H-pyrrol-2-yl)phenyl)-2,3,4,5-tetrahydro-1H-pyrido[4,3-b]indole], the inhibition at 0.1 µM in test [1] (setting [4]) is 79%; in test [2] (0.1 μM compound), 84%; in test [3] it was 64%. Further, the inhibition at 0.03 µM in test [2] (0.03 μM compound) was 74%.
The corresponding values for `Cc1ccc2c(c1)c1c(n2-c2cscc2-c2ccc(C)s2)CCN(C)C1` [Compound No. 79] are 51%, 90%, 53% and 82%.
With `Cc1ccc2c(c1)c1c(n2-c2ccccc2-c2ccc3c(ccn3C)c2)CCN(C)C1` [Compound No. 85, 2,8-dimethyl-5-(2-(1-methyl-1H-indol-5-yl)phenyl)-2,3,4,5-tetrahydro-1H-pyrido[4,3-b]indole], the results for the inhibition at 0.1 µM in test [1] (setting [4]), in test [2] (0.1 μM compound) and in test [3] were 36%, 89% and 62%, respectively. Besides, the inhibition at 0.03 µM in test [2] (0.03 μM compound) worked out at 80%.
For the compound `Cc1ccc2c(c1)c1c(n2-c2cscc2-c2ccc3c(ccn3C)c2)CCN(C)C1` [Compound 33], the inhibition at 0.03 µM in test [1] (0.03 μM compound, read-out: Percentage inhibition of ligand binding, Adrenergic α1B) was 46%; in test [2] (0.03 μM compound) it was 87%. Also, the “Percentage inhibition of ligand binding, Adrenergic α1B” value in test [1] (0.1 μM compound) came to 73%. Also, the “Percentage inhibition of ligand binding, Adrenergic α2A” value in test [2] (0.03 μM compound) and in test [2] (0.1 μM compound) was 96% throughout. Further, the inhibition at 0.1 µM is 92% in test [2] (0.1 μM compound) and 69% in test [3].
Regarding `Cc1ccc2c(c1)c1c(n2-c2cscc2-c2ccc(S(C)(=O)=O)cc2)CCN(C)C1` [Compound No. 76], the inhibition at 0.1 µM was determined as 68% in test [1] (setting [4]) and 73% in test [3]. In addition, the inhibition at 0.03 µM in test [2] (0.03 μM compound) amounted to 44%. Besides, the “Percentage inhibition of ligand binding, Adrenergic α2A” value in test [2] (0.1 μM compound) was found to be 68%.
On to `Cc1ccc2c(c1)c1c(n2-c2cscc2-c2ccc3cnccc3c2)CCN(C)C1` [Compound No. 68], for which the inhibition at 0.1 µM in test [1] (setting [4]) amounted to 61%; in test [2] (0.1 μM compound) it was 86%; in test [3], 68%. For the same compound, in test [2] (0.03 μM compound), the inhibition at 0.03 µM stood at 76%.
The corresponding values for `Cc1csc(-c2cscc2-n2c3c(c4cc(C)ccc42)CN(C)CC3)c1` [Compound 50] are 42%, 88%, 51% and 82%.
`COc1ccc(-c2cscc2-n2c3c(c4cc(C)ccc42)CN(C)CC3)cc1` [Compound 37]: the inhibition at 0.1 µM came to 77% in test [1] (setting [4]), 88% in test [2] (0.1 μM compound) and 79% in test [3]. Besides, in test [2] (0.03 μM compound), the inhibition at 0.03 µM turned out to be 81%.
